Measured values: a melting point compilation (Tetko et al.; mined from patent text by program, amines drawn as free bases though some values may be those of a salt)

Compound	melting point [°C]
CN(c1cccc2cc(-c3nccs3)[nH]c12)S(=O)(=O)c1ccsc1CO	192
Nc1nc(-c2ccc([N+](=O)[O-])o2)ns1	168 to 170
O=C(c1ccccc1)C(c1ccc(Cl)cc1)c1c(Cl)cc(-n2ncc(=O)[nH]c2=O)cc1Cl (stereo not given)	143
O=C1NCCSc2sccc21	157 to 158
CC(C)N1OCCC(C(O)c2cc(C(C)(C)C)c(O)c(C(C)(C)C)c2)C1=O (stereo not given)	150 to 153
NCCNC(=S)Nc1c(Cl)cc([N+](=O)[O-])cc1Cl	205
O=C(Nc1ccc(Br)c(C(F)(F)F)c1)c1ccccc1NCc1ccncc1	123 to 124
COc1ccc2nc(C)[nH]c(=O)c2c1Br	273 to 274
O=C(c1ccc2ccn(CCOc3ccc(CC(OCC(F)(F)F)C(=O)O)cc3)c2n1)C1CC1 (stereo not given)	113
Oc1ccccc1-c1cc(-c2ccc(F)c(F)c2)cc(-c2ccc(Cl)cc2)n1	146 to 148
O=C(Nc1c([N+](=O)[O-])cnn1-c1c(Cl)cc(C(F)(F)F)c(Cl)c1Cl)C(Cl)Cl	112 to 120
NC(=O)C1(N2C(=O)c3ccccc3C2=O)CCCCC1	224 to 226
NCCOCC(O)c1cccc2ccccc12 (stereo not given)	89.5 to 92
CS(=O)(=O)c1ccc(-n2cccc2-c2ccc(F)cc2)cc1	195 to 196
CS(=O)(=O)c1ccc(C(=O)c2cnoc2C2CC2)c(Cl)c1	116
Clc1ccc(OC2CC3CCC(C2)N3Cc2nccs2)cc1Cl (stereo not given)	123 to 124
O=C1C2CCCCC2C(=O)N1c1cc(C(F)(F)F)cc(C(F)(F)F)c1 (stereo not given)	85 to 87
CCCc1c(OCCCCCCC(=O)NCCCCc2cccnc2)ccc(C(C)=O)c1O	57 to 59
c1ccc2c(c1)ccc1c(-c3ccncc3)[nH]nc12	271 to 273
O=C(N[C@@H](Cc1ccc(OCc2ccsc2)cc1)C(=O)O)c1cn2cc(-c3ccc(Cl)cc3)ccc2n1	203
NS(=O)(=O)c1cc(NC(=O)c2cnn3c(C(F)(F)F)cc(-c4ccc(Cl)cc4)nc23)c(Cl)s1	329
O=C(NC(=O)c1ccccc1Br)Nc1cc(C(F)(F)F)c(Cl)cc1Br	193

Compound	melting point [°C]
O=S(=O)(c1ccc(F)cc1)c1cncc(OC2SCC(O)C(O)C2O)c1 (stereo not given)	93 to 96
COC(=O)c1cscc1NC(=O)NCCCCCBr	92 to 93.5
Cc1c(C)c(C(=O)O)c(C)c(C)c1C(=O)O	> 300
ClCc1ccc(OCc2coc(/C=C/c3ccccc3)n2)cc1	116 to 117
NCCN1CCOC(c2ccccc2)(c2ccccc2)CC1	75 to 80
CCCCCCOC(=O)C(CSC(=O)C(C)c1ccc(CC(C)C)cc1)NC(C)=O (stereo not given)	40 to 45
CC(O)CCc1ccc2c(c1)C(=O)c1ccccc1-2 (stereo not given)	77 to 78
CCCCCCCCCCCCCCCCCCN(C)C(=O)c1ccc(Cl)c([N+](=O)[O-])c1	55 to 56
COC(=O)c1cccnc1C(=O)CC(=O)c1ccccc1	87
O=c1[nH]c2ccccc2n1CCCN1CCN(C(c2ccc(F)cc2)c2ccc(F)cc2)CC1	197
CCCc1c(C(=O)OCC)sc2[nH]c(=O)c(=O)[nH]c12	305 to 307
CC(C)=CCN(C(=O)OC(C)(C)C)c1ccc(OC2CCN(C(=O)OC(C)(C)C)CC2)cc1	145 to 148
CC(=O)Oc1ccc(C(=O)Oc2ccc(C(=O)O)cc2)cc1	98 to 100
Cc1cccc(C)c1N1CCCNC1=S	249 to 251
CC(C)(C)NC(=O)c1ncccc1CCc1ccc(F)cc1	59 to 61
O=C(NCCCCCCOC(=O)Oc1ccc([N+](=O)[O-])cc1)OC1CCN(C(=O)Oc2ccc(Oc3ccccc3)cc2)CC1	117 to 120
COc1cccc2c(CCBr)coc12	61 to 62
CCCC(CCC)(CCC)C(=O)O	67
NCC(=O)Nc1ccc(Br)cc1C(=NCCO)c1ccccc1F	167 to 168
CSc1nn2c(N)cc(C)nc2c1S(=O)(=O)c1ccc(Br)cc1	> 230
Cn1cnc2nc(C=Cc3ccc(Cl)cc3)nn2c1=S	> 300
CS(=O)(=O)n1cnc2cc(Cl)c(Cl)cc21	191 to 193

Compound	melting point [°C]
CC(C)(C)C(COC(N)=O)(NC(=O)C(=O)c1c[nH]c2cc(Br)ccc12)c1c[nH]c2ccccc12 (stereo not given)	145
Nc1cc(C(F)(F)F)ccc1NC1CCCCC1	70
CCn1nc2oc(CO)c(C)c2c1C	124 to 126
CC(=O)NC[C@H]1CN(c2ccc(C3=CCCN(C(=O)CO)C3)c(F)c2)C(=O)O1	188 to 190
COc1ccccc1N1CCN(Cc2ccccc2C(c2ccc(O)cc2)c2ccc(O)cc2)CC1	175 to 178
CC(=O)O[C@@H]1[C@H](OC(C)=O)[C@@H](C)O[C@H]1n1c(Cl)nc2c(Br)c(Cl)c(Cl)cc21	138 to 141
Cc1c(Cl)cccc1S(=O)(=O)Nc1nc(CC(=O)N2CCSCC2)cs1	103 to 106
CCn1nnc(C(CO)=C(c2ccc(F)cc2)c2ccc(F)cc2)n1	82 to 84
Clc1ccc(I)cc1CBr	94 to 95
Cc1ccc(S(=O)(=O)N2CCC[C@H]2C(=O)N[C@@H](Cc2ccccc2)C(=O)NOCc2ccccc2)cc1	127 to 130
COC(=O)COCCOc1ccc(N)cc1	51 to 52.5
CC(C)(C)OC(=O)NCc1ccccc1Br	51 to 53
CCOC(=O)/C=C/c1ccc(Cl)c(Cl)n1	102 to 103
Clc1ccc(C2=NNCC2)cc1	90 to 100
Fc1cccc2c(NCCc3nc(-c4ccccc4)cs3)ccnc12	134 to 135
CC(=O)SCC1(C)C(=O)N2CCCC(C(=O)OC(C)(C)C)N2C1=O (stereo not given)	78 to 79
CCNC(=O)[C@H]1N(C(=O)[C@@H](O)[C@H](Cc2ccccc2)NC(=O)c2cc(C)cc(O)c2C)CC(F)(F)C1(C)C	208 to 214
C#Cc1cnn2ccc(-c3ccc(Cl)cc3)nc12	128 to 129
C=CCNc1cccnc1S(N)(=O)=O	134 to 135
O=C1OC(CO)CN1c1ccc2ccccc2c1 (stereo not given)	174
[N-]=[N+]=NCC(O)(Cn1cncn1)c1ccc(Cl)cc1Cl (stereo not given)	117 to 119

Second part, the compound after the results:

melting point [°C]	Compound
204 to 206	CC(=O)OCc1c(-c2ccccc2)oc2c(CO)cccc2c1=O
76 to 78	COc1cccc(COc2cc3c(cc2-c2cc(C=CC(=O)O)ccc2OC)C(C)(C)CCC3(C)C)c1
203 to 205	CCCCc1ncc(CC(NC(=O)CC)C(=O)O)n1Cc1ccccc1Cl (stereo not given)
153 to 154	Cc1oc(-c2ccccc2)nc1CCc1nc(COc2cccc(CC(=O)O)c2)cs1
153 to 155	O=c1c2cccc(O)c2nc(-c2ccc(OCCN3CCCCC3)cc2)n1-c1ccc(O)cc1
127 to 128	COc1c(OC)c(OC)c2c(c1OC)c(=O)c1ccc(OCc3ccccc3)c(OC)c1n2C
112	COC(=O)c1ccc(OCC(C)NCC(O)c2cccc(Cl)c2)c(C(=O)OC)c1 (stereo not given)
89 to 91	CCCNC(=O)n1nc(Oc2c(Cl)cc(C(F)(F)F)cc2Cl)cc1C(Cl)(Cl)Cl
85 to 87	CCOC(=O)N1CC=C(c2cc(F)c(C#N)cc2F)CC1
254	Cc1cc(-c2cnn3c(C(F)(F)F)cc(-c4ccc(Cl)c(C)c4)nc23)cc(C)n1
143 to 144	Cc1ccc(-c2c(NS(=O)(=O)c3ccc(C(C)(C)C)cc3)nc(C(C)C)nc2OCCO)cc1
150 to 152	CCCOCCc1ccc(-c2ccc3c(c2)C=C(C(=O)Nc2ccc(CN(C)C4CCOCC4)cc2)CCS3(=O)=O)c(Cl)c1
111 to 114	Cc1cc(Oc2ccc(Cl)c(C(F)(F)F)c2)c(C)cc1N=CNC#N
209 to 212	CCOC(=O)c1cc2c(C=O)cc3c4ccccc4ccc3c2o1
118 to 120	CCOC(=O)C1=C(CC)NCN(c2ccc(Cl)cc2)C1=O
59 to 61	Cc1cc(OCCCCCl)cc(-c2ccc(F)cc2)n1
192 to 193	COc1ccc(C(=O)N2c3ccccc3C(N3CCCc4cc(NC(=O)OC(C)(C)C)ccc43)CC2C)cc1OC (stereo not given)
175 to 176	CCCc1c(OCCOc2ccc(C(=O)O)cc2)ccc(C(C)=O)c1O

melting point [°C]	Compound
95 to 96	CN(C)c1cccc(Oc2cccc(-c3cccc(C(=O)NCCC#N)c3)n2)c1
114	COc1ccc(Nc2nc(Cl)nc(OCC3CCCCC3)n2)cc1Cl
138 to 140	COC(=O)c1cscc1NC(=O)COc1ccc(Br)cn1
170	NCCCn1cc(-c2cc3nccnc3[nH]2)c2ccccc21
251 to 254	CC(=O)Nc1cccc(C2=CCNc3c(C#N)cnn32)c1
164 to 166	CCCn1c(=O)c2c(NC)n(C(=O)OC)nc2n(Cc2cccc(Cl)c2)c1=O
106 to 113	CNc1ccc(-c2ncn(-c3ccc(C(F)(F)F)cc3)n2)cc1
225 to 227	CCOc1cc2ncc(C#N)c(Nc3ccc4c(c3)OCCO4)c2cc1OCC
199 to 201	CCCCOc1cc(C(=O)N(C)C)cc(S(N)(=O)=O)c1Cc1ccccc1
196 to 200	CCNC(=O)N1Cc2c(-c3ccc(F)cc3)ncn2-c2ccccc21
183 to 185	CC1(C)Oc2ccc(C#N)cc2[C@@H](NC(=S)Nc2ccccc2)[C@@H]1O (relative stereo)
230 to 232	O=C(O)COc1ccc(Cl)c2c(=O)c3ccccc3sc12
> 320	O=C(Nc1nc2ccc(Cl)cc2s1)c1ccc2cccnc2c1O
138 to 140	CCOC(=O)N1CCN(CCNc2ncnc3c2sc2nc(N(C)C)c4c(c23)CC(C)(C)CC4)CC1
200 to 201	COc1ccc(C(=O)N2CCc3cc(OCc4ccccc4)c(OC)cc3C2=O)cc1OC
170 to 172	CCc1nn2c(-c3cccnc3)ccnc2c1C#N
67 to 68	O=C(Cc1ccccc1Nc1c(Cl)cccc1Cl)OCCc1ccccn1
